# Results reported in patent US20220169632A1, “METHODS AND MATERIALS FOR INCREASING OR MAINTAINING NICOTINAMIDE MONONUCLEOTIDE ADENYLYL TRANSFERASE-2 (NMNAT2) POLYPEPTIDE LEVELS” (University of Pittsburgh - Of the Commonwealth System of …, priority 2019, published 2022).
# System: NMNAT2
# Assay: NMNAT2-Hibit nano-luciferase activity in stably transfected U87MG cells, various concentrations, 24 hours
# Assay type: cell-based
# Settings: U87MG cells stably transfected with NMNAT2-Hibit luc plasmid
# Experimental: Selected compounds were tested in vitro. U87MG cells were stably transfected with NMNAT2-Hibit luc plasmid. Cells were treated with a test compound at various concentrations for 24 hours. Cells were then collected and assayed for nano-luciferase activity.
row,SMILES,E: compound efficacy for NMNAT2 activation (concentration giving >25% increase in NMNAT2 luciferase activity)
1,Cc1cccc(CNC(=O)[C@H]2C[C@@H]2c2cn(Cc3cc(C)ccc3C)c3ccccc23)c1 (racemic) [BC20348],+ (“+” >25% increase in NMNAT2 luciferase activity at >25 μM.)
2,Cc1c(C)n(Cc2ccccc2)c2ccc(C(=O)N3CCc4occc4C3)cc12 [BC20307],+ (“+” >25% increase in NMNAT2 luciferase activity at >25 μM.)
3,COc1cccc(CNC(=O)C2CCc3c(c4ccccc4n3Cc3ccncc3)C2)c1 (centres unmarked) [BC20283],+ (“+” >25% increase in NMNAT2 luciferase activity at >25 μM.)
4,Cc1ccccc1Cn1cc(CCCC(=O)N2CCN(C(=O)c3ccco3)CC2)c2ccccc21 [BC20158],++ (“++” >25% increase in NMNAT2 luciferase activity at >1 μM ≤25 μM.)
5,COc1cccc(CNC(=O)C2CCc3c(c4ccccc4n3Cc3cccc(F)c3)C2)c1 (centres unmarked) [BC20226],+ (“+” >25% increase in NMNAT2 luciferase activity at >25 μM.)
6,O=C(NCCc1ccccc1)C1CCc2c(c3ccccc3n2Cc2cccc(F)c2)C1 (centres unmarked) [BC20227],++ (“++” >25% increase in NMNAT2 luciferase activity at >1 μM ≤25 μM.)
7,COc1ccc(CNC(=O)N2CCc3c(c4ccccc4n3Cc3ccncc3)C2)cc1 [BC20338],+ (“+” >25% increase in NMNAT2 luciferase activity at >25 μM.)
8,Cc1ccc(CNC(=O)C2CCc3c(c4ccccc4n3CC(=O)NCc3ccco3)C2)o1 (centres unmarked) [BC20236],++ (“++” >25% increase in NMNAT2 luciferase activity at >1 μM ≤25 μM.)
9,Cc1ccc(Cn2cc([C@H]3C[C@@H]3C(=O)NCc3ccccc3C)c3ccccc32)cc1 (racemic) [BC20296],++ (“++” >25% increase in NMNAT2 luciferase activity at >1 μM ≤25 μM.)
10,Cc1cccc(NC(=O)c2ccc3c(c2)c(C)c(C)n3Cc2cccc(F)c2)c1C [BC20249],+++ (“+++” >25% increase in NMNAT2 luciferase activity at ≤1 μM.)
11,Cc1ccc(C)c(Cn2cc3c4c(cccc42)C(=O)N(CCc2ccccc2C)CC3)c1 [BC20273],+ (“+” >25% increase in NMNAT2 luciferase activity at >25 μM.)
12,COc1cccc(CNC(=O)C2CCc3c(c4ccccc4n3Cc3cc(C)ccc3C)C2)c1 (centres unmarked) [BC20188],++ (“++” >25% increase in NMNAT2 luciferase activity at >1 μM ≤25 μM.)
13,Cc1ccc(C)c(Cn2c(C)c([C@H]3C[C@@H]3C(=O)NCCc3ccccc3)c3ccccc32)c1 (racemic) [BC20326],++ (“++” >25% increase in NMNAT2 luciferase activity at >1 μM ≤25 μM.)
14,Fc1cccc(Cn2c3c(c4ccccc42)CNCC3)c1 [BC20333],++ (“++” >25% increase in NMNAT2 luciferase activity at >1 μM ≤25 μM.)
15,Cc1c(C)n(Cc2ccccc2F)c2ccc(C(=O)NCCc3ccccc3)cc12 [BC20245],++ (“++” >25% increase in NMNAT2 luciferase activity at >1 μM ≤25 μM.)
16,Cc1ccccc1Cn1c(C)c(C)c2cc(C(=O)NCc3ccncc3)ccc21 [BC20209],++ (“++” >25% increase in NMNAT2 luciferase activity at >1 μM ≤25 μM.)
17,COc1ccccc1CNC(=O)CCCc1cn(Cc2cccc(C)c2)c2ccccc12 [BC20213],++ (“++” >25% increase in NMNAT2 luciferase activity at >1 μM ≤25 μM.)
18,Cc1ccccc1Cn1cc(CCCC(=O)NCc2ccncc2)c2ccccc21 [BC20160],++ (“++” >25% increase in NMNAT2 luciferase activity at >1 μM ≤25 μM.)
19,COc1cccc(CNC(=O)C2CCCc3c2c2ccccc2n3Cc2cccc(F)c2)c1 (centres unmarked) [BC20375],+ (“+” >25% increase in NMNAT2 luciferase activity at >25 μM.)
20,Cc1ccccc1CNC(=O)Cn1cc(C(=O)c2ccc(Cl)cc2)c2ccccc21 [BC20178],++ (“++” >25% increase in NMNAT2 luciferase activity at >1 μM ≤25 μM.)
21,Cc1ccc(Cn2c3c(c4ccccc42)C(C(=O)NCc2ccco2)CCC3)cc1 (centres unmarked) [BC20383],+ (“+” >25% increase in NMNAT2 luciferase activity at >25 μM.)
22,Cc1ccc(Cn2cc([C@H]3C[C@@H]3C(=O)NCc3ccc(C)o3)c3ccccc32)cc1 (racemic) [BC20294],+ (“+” >25% increase in NMNAT2 luciferase activity at >25 μM.)
23,COC(=O)c1ccc2c(c1)c(C)c(C)n2Cc1ccccc1C [BC20305],+ (“+” >25% increase in NMNAT2 luciferase activity at >25 μM.)
24,Cc1ccc(CNC(=O)C2CCc3c(c4ccccc4n3Cc3ccncc3)C2)o1 (centres unmarked) [BC20279],+ (“+” >25% increase in NMNAT2 luciferase activity at >25 μM.)

row,SMILES,E: compound efficacy for NMNAT2 activation (concentration giving >25% increase in NMNAT2 luciferase activity)
1,Cc1ccc(Cn2cc(C3CCNC(=O)C3)c3ccccc32)cc1 (centres unmarked) [BC20192],++ (“++” >25% increase in NMNAT2 luciferase activity at >1 μM ≤25 μM.)
2,Cc1c(C)n(Cc2ccccc2F)c2ccc(C(=O)N3CCN(C(=O)c4ccco4)CC3)cc12 [BC20107],++ (“++” >25% increase in NMNAT2 luciferase activity at >1 μM ≤25 μM.)
3,Cc1c(C)n(Cc2ccccc2F)c2ccc(C(=O)NC(C)Cc3ccco3)cc12 (centres unmarked) [BC20244],+ (“+” >25% increase in NMNAT2 luciferase activity at >25 μM.)
4,COc1ccccc1CNC(=O)CCCc1cn(Cc2cccc(F)c2)c2ccccc12 [BC20142],++ (“++” >25% increase in NMNAT2 luciferase activity at >1 μM ≤25 μM.)
5,Cc1ccc(Cn2cc(C3CCN(Cc4ccccc4C)C(=O)C3)c3ccccc32)cc1 (centres unmarked) [BC20232],+ (“+” >25% increase in NMNAT2 luciferase activity at >25 μM.)
6,COc1ccccc1CNC(=O)C1CCCc2c1c1ccccc1n2Cc1cccc(F)c1 (centres unmarked) [BC20374],+ (“+” >25% increase in NMNAT2 luciferase activity at >25 μM.)
7,O=C(NCCc1ccccc1)C1CCc2c(c3ccccc3n2Cc2ccncc2)C1 (centres unmarked) [BC20284],+ (“+” >25% increase in NMNAT2 luciferase activity at >25 μM.)
8,O=C(CCCc1cn(Cc2ccccc2F)c2ccccc12)NCc1cccc(F)c1 [BC20124],++ (“++” >25% increase in NMNAT2 luciferase activity at >1 μM ≤25 μM.)
9,COc1ccccc1CNC(=O)Cn1cc(C(=O)c2ccc(Cl)cc2)c2ccccc21 [BC20180],++ (“++” >25% increase in NMNAT2 luciferase activity at >1 μM ≤25 μM.)
10,Cc1ccc(Cn2c3c(c4ccccc42)C(C(=O)NCC2CCCO2)CCC3)cc1 (centres unmarked) [BC20384],+ (“+” >25% increase in NMNAT2 luciferase activity at >25 μM.)
11,Cc1cccc(CNC(=O)c2ccc3c(c2)c(C)c(C)n3Cc2ccccc2F)c1 [BC20195],+ (“+” >25% increase in NMNAT2 luciferase activity at >25 μM.)
12,O=C(CCCc1cn(Cc2ccccc2F)c2ccccc12)NCc1ccncc1 [BC20133],++ (“++” >25% increase in NMNAT2 luciferase activity at >1 μM ≤25 μM.)
13,Cc1ccc(Cn2cc([C@H]3C[C@@H]3C(=O)NCc3cccc(F)c3)c3ccccc32)cc1 (racemic) [BC20295],+ (“+” >25% increase in NMNAT2 luciferase activity at >25 μM.)
14,Cc1cccc(CNC(=O)CCCc2cn(Cc3ccccc3C)c3ccccc23)c1 [BC20154],+ (“+” >25% increase in NMNAT2 luciferase activity at >25 μM.)
15,Cc1ccc(C)c(Cn2cc([C@H]3C[C@@H]3C(=O)NCc3cccc(F)c3)c3ccccc32)c1 (racemic) [BC20346],+ (“+” >25% increase in NMNAT2 luciferase activity at >25 μM.)
16,COc1cccc(CNC(=O)[C@H]2C[C@@H]2c2c(C)n(Cc3cc(C)ccc3C)c3ccccc23)c1 (racemic) [BC20325],+ (“+” >25% increase in NMNAT2 luciferase activity at >25 μM.)
17,O=C1c2cccc3c2c(cn3Cc2cccc(F)c2)CCN1Cc1ccncc1 [BC20277],+ (“+” >25% increase in NMNAT2 luciferase activity at >25 μM.)
18,Cc1ccc(C)c(Cn2cc([C@H]3C[C@@H]3C(=O)NCc3ccccn3)c3ccccc32)c1 (racemic) [BC20366],+ (“+” >25% increase in NMNAT2 luciferase activity at >25 μM.)
19,O=C(CCCc1cn(Cc2ccccc2F)c2ccccc12)NCc1ccccc1F [BC20210],+ (“+” >25% increase in NMNAT2 luciferase activity at >25 μM.)
20,CCCCN(CC)Cc1ccc(CNC(=O)C2CCc3c(c4ccccc4n3Cc3cccc(F)c3)C2)o1 (centres unmarked) [BC20259],+++ (“+++” >25% increase in NMNAT2 luciferase activity at ≤1 μM.)
21,Cc1ccc(CNC(=O)Cn2cc(C(=O)c3ccc(Cl)cc3)c3ccccc32)o1 [BC20176],++ (“++” >25% increase in NMNAT2 luciferase activity at >1 μM ≤25 μM.)
22,O=C(c1ccco1)N1CCN(C(=O)C2CCc3c(c4ccccc4n3Cc3cccc(F)c3)C2)CC1 (centres unmarked) [BC20257],+ (“+” >25% increase in NMNAT2 luciferase activity at >25 μM.)
23,Cc1ccc(Cn2cc([C@H]3C[C@@H]3C(=O)NCCc3ccccc3)c3ccccc32)cc1 (racemic) [BC20300],++ (“++” >25% increase in NMNAT2 luciferase activity at >1 μM ≤25 μM.)
